One assay concerns the target T1, TLR7 (Homo sapiens, UniProt Q9NYK1).
T1 construct: expressed in transfected cells; host or cells: HEK/293 cells carrying TLR7 and an NF-kB luciferase reporter
T1 sequence (Q9NYK1 27-1049): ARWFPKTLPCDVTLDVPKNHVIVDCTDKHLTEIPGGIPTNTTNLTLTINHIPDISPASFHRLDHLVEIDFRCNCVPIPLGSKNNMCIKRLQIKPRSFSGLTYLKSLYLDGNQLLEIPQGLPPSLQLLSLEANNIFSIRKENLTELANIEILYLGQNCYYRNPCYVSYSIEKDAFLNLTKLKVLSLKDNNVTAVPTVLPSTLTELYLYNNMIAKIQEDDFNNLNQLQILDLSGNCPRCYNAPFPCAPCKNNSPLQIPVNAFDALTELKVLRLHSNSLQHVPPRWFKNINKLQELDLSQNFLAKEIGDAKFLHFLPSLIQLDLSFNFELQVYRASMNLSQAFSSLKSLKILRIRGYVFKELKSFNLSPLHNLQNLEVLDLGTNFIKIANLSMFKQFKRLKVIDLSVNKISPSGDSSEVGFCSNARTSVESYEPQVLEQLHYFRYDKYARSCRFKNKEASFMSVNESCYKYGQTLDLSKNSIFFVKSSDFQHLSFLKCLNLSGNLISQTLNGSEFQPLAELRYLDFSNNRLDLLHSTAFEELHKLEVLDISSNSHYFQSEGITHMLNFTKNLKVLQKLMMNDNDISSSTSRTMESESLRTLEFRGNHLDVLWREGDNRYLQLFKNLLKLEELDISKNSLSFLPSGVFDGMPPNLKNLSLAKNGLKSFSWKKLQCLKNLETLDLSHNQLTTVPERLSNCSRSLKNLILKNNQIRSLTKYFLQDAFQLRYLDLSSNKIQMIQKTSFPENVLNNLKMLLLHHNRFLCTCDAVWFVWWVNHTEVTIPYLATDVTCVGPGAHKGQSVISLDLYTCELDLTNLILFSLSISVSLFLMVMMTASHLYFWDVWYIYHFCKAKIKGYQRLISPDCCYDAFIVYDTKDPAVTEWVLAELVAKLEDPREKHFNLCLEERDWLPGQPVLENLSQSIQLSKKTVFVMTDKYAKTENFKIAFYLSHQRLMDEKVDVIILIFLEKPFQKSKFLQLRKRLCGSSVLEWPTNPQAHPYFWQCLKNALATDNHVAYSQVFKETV
Kind of assay: HEK/293 TLR7 Cell Assay. As to conditions: TLR7/NFKb HEK cells, R848 agonist 10 uM final concentration, Steady-Glo readout; read-out: TLR7 potency. The class given is cell-based. In a few lines: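 TLR7/NF-κB reporter HEK293 cells, 5000/well, cultured 24 h, then preincubated 30 min with compound before R848 agonist (10 uM final). After 5 h stimulation, Steady-Glo luciferase luminescence read.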

The target in the next assay is T2, TLR8 (Homo sapiens, UniProt Q9NR97).
T2 construct: expressed in transfected cells; host or cells: HEK/293 reporter cells (NF-kB luciferase)
T2 sequence (Q9NR97 27-1041): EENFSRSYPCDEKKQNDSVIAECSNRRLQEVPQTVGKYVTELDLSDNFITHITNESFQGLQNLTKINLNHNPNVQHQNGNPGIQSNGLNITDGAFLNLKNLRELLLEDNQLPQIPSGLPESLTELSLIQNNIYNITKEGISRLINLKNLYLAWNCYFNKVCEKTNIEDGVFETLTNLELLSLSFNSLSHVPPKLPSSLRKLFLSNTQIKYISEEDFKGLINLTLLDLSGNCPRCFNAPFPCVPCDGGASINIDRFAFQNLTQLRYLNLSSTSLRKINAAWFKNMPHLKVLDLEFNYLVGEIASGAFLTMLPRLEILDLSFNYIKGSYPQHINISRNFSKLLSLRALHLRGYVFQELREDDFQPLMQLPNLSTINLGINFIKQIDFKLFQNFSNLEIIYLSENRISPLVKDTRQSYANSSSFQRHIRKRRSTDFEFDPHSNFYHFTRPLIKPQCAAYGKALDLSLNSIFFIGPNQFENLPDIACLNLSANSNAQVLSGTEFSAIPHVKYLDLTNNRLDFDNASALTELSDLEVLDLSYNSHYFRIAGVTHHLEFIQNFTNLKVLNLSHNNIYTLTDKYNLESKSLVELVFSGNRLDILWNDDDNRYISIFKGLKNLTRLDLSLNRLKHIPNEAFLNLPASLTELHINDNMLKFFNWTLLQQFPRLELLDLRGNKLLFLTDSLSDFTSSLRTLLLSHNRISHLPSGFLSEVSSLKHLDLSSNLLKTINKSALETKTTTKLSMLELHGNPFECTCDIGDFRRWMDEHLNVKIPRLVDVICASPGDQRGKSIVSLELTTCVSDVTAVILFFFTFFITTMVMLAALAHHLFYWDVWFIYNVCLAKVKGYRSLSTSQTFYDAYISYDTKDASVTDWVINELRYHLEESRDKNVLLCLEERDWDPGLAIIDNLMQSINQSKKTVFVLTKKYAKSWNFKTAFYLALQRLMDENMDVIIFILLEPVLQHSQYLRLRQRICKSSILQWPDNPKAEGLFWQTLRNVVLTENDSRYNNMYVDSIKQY
Kind of assay: HEK/293 TLR8 Cell Assay. The assay is classed as cell-based. As to conditions: HEK cells, R848 agonist 30 uM final concentration, Steady-Glo readout; read-out: TLR8 potency.

Bounds are passed on as bounds.

On to `C[C@@H]1CN(c2ccc(C#N)c3nccnc23)C[C@H](C(=O)NC2CN(CC(F)(F)F)C2)O1` [Example 254, (2R,6R)-4-(8-Cyano-quinoxalin-5-yl)-6-methyl-morpholine-2-carboxylic acid [1-(2,2,2-trifluoro-ethyl)-azetidin-3-yl]-amide], for which the IC50 on TLR7 was less than 75 nM; at TLR8, more than 150 nM.

Turning to `CNS(=O)(=O)CCNC(=O)[C@H]1CN(c2ccc(C#N)c3nccnc23)C[C@@H](C)O1` [Example 255, (2R,6R)-4-(8-cyanoquinoxalin-5-yl)-6-methyl-N-[2-(methylsulfamoyl)ethyl]morpholine-2-carboxamide], the IC50 on TLR7 and at TLR8 was less than 75 nM each time.

Turning to `C[C@@H]1CN(c2ccc(C#N)c3nccnc23)C[C@H](C(=O)NCCS(C)(=O)=O)O1` [Example 256, (2R,6R)-4-(8-cyanoquinoxalin-5-yl)-N-(2-methanesulfonylethyl)-6-methyl morpholine-2-carboxamide], the IC50 on TLR7 and on TLR8 was less than 75 nM in each case.

As to `C[C@@H]1CN(c2ccc(C#N)c3nccnc23)C[C@H](C(=O)NCC2CCS(=O)(=O)C2)O1` (stereo partly drawn) [Example 257, (2R,6R)-4-(8-cyanoquinoxalin-5-yl)-N-[(1,1-dioxo-1λ^6-thiolan-3-yl)methyl]-6-methylmorpholine-2-carboxamide], the IC50 on TLR7 and on TLR8 was less than 75 nM in each case.

As to `C[C@@H]1CN(c2ccc(C#N)c3nccnc23)C[C@H](C(=O)NCC2CS(=O)(=O)C2)O1` [Example 258, (2R,6R)-4-(8-cyanoquinoxalin-5-yl)-N-[(1,1-dioxo-1λ^6-thietan-3-yl)methyl]-6-methylmorpholine-2-carboxamide], the results for the IC50 at TLR7 and at TLR8 were less than 75 nM and more than 150 nM, respectively.

On to `C[C@@H]1CN(c2ccc(C#N)c3nccnc23)C[C@H](C(=O)NCCC2CS(=O)(=O)C2)O1` [Example 259, (2R,6R)-4-(8-cyanoquinoxalin-5-yl)-N-[2-(1,1-dioxo-1λ^6-thietan-3-yl)ethyl]-6-methylmorpholine-2-carboxamide], for which the IC50 is less than 75 nM at TLR7 and more than 150 nM on TLR8.

For `C[C@@H]1CN(c2ccc(C#N)c3nccnc23)C[C@H](C(=O)NCCCS(C)(=O)=O)O1` [Example 260, (2R,6R)-4-(8-cyanoquinoxalin-5-yl)-N-(3-methanesulfonylpropyl)-6-methylmorpholine-2-carboxamide], the results for the IC50 at TLR7 and on TLR8 were 75 to 150 nM and more than 150 nM, respectively.

Turning to `C[C@@H]1CN(c2ccc(C#N)c3nccnc23)C[C@H](C(=O)NCCN2CCOCC2)O1` [Example 265, (2R,6R)-4-(8-cyanoquinoxalin-5-yl)-6-methyl-N-[2-(morpholin-4-yl)ethyl]morpholine-2-carboxamide], the IC50 on TLR7 and on TLR8 was less than 75 nM throughout.

For the compound `CCN(C)CCNC(=O)[C@H]1CN(c2ccc(C#N)c3ncncc23)C[C@@H](C)O1` [Example 266, (2R,6R)-4-(8-Cyano-quinazolin-5-yl)-6-methyl-morpholine-2-carboxylic acid [2-(ethyl-methyl-amino)-ethyl]-amide], the IC50 was 75 to 150 nM on TLR7 and more than 150 nM at TLR8.

Take `C[C@@H]1CN(c2ccc(C#N)c3ncncc23)C[C@H](C(=O)NC[C@H]2CN(C)CCO2)O1` [Example 267, (2R,6R)-4-(8-Cyano-quinazolin-5-yl)-6-methyl-morpholine-2-carboxylic acid ((S)-4-methyl-morpholin-2-ylmethyl)-amide]: the IC50 at TLR7 and on TLR8 was less than 75 nM throughout.

For the compound `C[C@@H]1CN(c2ccc(C#N)c3ncncc23)C[C@H](C(=O)NC2CCC(N3CCOCC3)CC2)O1` (stereo partly drawn) [Example 268, (2R,6R)-4-(8-Cyano-quinazolin-5-yl)-6-methyl-morpholine-2-carboxylic acid (4-morpholin-4-yl-cyclohexyl)-amide], the IC50 on TLR7 and at TLR8 was less than 75 nM in each case.

For `C[C@@H]1CN(c2cnc(C#N)c3ncccc23)C[C@H](C(=O)NCC(O)C(F)(F)F)O1` (stereo partly drawn) [Example 269, (2R,6R)-4-(8-Cyano-[1,7]naphthyridin-5-yl)-6-methyl-morpholine-2-carboxylic acid (3,3,3-trifluoro-2-hydroxy-propyl)-amide], the IC50 on TLR7 and at TLR8 was more than 150 nM in each case.

As to `CCN(C)CCNC(=O)[C@H]1CN(c2cnc(C#N)c3ncccc23)C[C@@H](C)O1` [Example 270, (2R,6R)-4-(8-Cyano-[1,7]naphthyridin-5-yl)-6-methyl-morpholine-2-carboxylic acid [2-(ethyl-methyl-amino)-ethyl]-amide], the IC50 on TLR7 and at TLR8 was less than 75 nM each time.

Turning to `C[C@@H]1CN(c2cnc(C#N)c3ncccc23)C[C@H](C(=O)NCC2CN(C)CCO2)O1` (stereo partly drawn) [Example 271, (2R,6R)-4-(8-Cyano-[1,7]naphthyridin-5-yl)-6-methyl-morpholine-2-carboxylic acid (4-methyl-morpholin-2-ylmethyl)-amide], the IC50 on TLR7 and at TLR8 was less than 75 nM in each case.

`C[C@@H]1CN(c2cnc(C#N)c3ncccc23)C[C@H](C(=O)NC2CCN(CC3CC3)C2)O1` (stereo partly drawn) [Example 272, (2R,6R)-4-(8-Cyano-[1,7]naphthyridin-5-yl)-6-methyl-morpholine-2-carboxylic acid (1-cyclopropylmethyl-pyrrolidin-3-yl)-amide]: the IC50 on TLR7 and on TLR8 was less than 75 nM throughout.

In the case of `C[C@@H]1CN(c2cnc(C#N)c3ncccc23)C[C@H](C(=O)NCC2CCCN2C)O1` (stereo partly drawn) [Example 273, (2R,6R)-4-(8-Cyano-[1,7]naphthyridin-5-yl)-6-methyl-morpholine-2-carboxylic acid (1-methyl-pyrrolidin-2-ylmethyl)-amide], the IC50 at TLR7 and on TLR8 was less than 75 nM each time.

In the case of `C[C@@H]1CN(c2cnc(C#N)c3ncccc23)C[C@H](C(=O)NC[C@H]2CN(C)CCO2)O1` [Example 274, (2R,6R)-4-(8-Cyano-[1,7]naphthyridin-5-yl)-6-methyl-morpholine-2-carboxylic acid ((S)-4-methyl-morpholin-2-ylmethyl)-amide], the IC50 at TLR7 and on TLR8 was less than 75 nM throughout.

Consider `C[C@@H]1CN(c2cnc(C#N)c3ncccc23)C[C@H](C(=O)NC[C@@H]2CN(C)CCO2)O1` [Example 275, (2R,6R)-4-(8-Cyano-[1,7]naphthyridin-5-yl)-6-methyl-morpholine-2-carboxylic acid ((R)-4-methyl-morpholin-2-ylmethyl)-amide], for which the IC50 on TLR7 and at TLR8 was less than 75 nM each time.

The values are drawn from US20210300940A1 (Merck Patent GmbH, priority 2018, published 2021).
